Drawing on PubChem BioAssay AID504388 (Southern Research Specialized Biocontainment Screening …, 2011), this text covers CC50 for 49 compounds.

The source made the active and inactive calls. No rule for the calls is given here.

This assay relates to host cell cytotoxicity, % cell control, HIV fusion counter-screen. The experiment in a line: cytotoxicity of HIV-1 entry inhibitor leads – cell-based, cytotoxicity control for CCR5-tropic HIV-1 fusion inhibitors, dose response (AID 504388).

As a reminder, the CC50 is the concentration giving 50% cytotoxicity. As to `O=C(O)CCCN1C(=O)/C(=C/c2ccc(-c3ccc(Cl)c(Cl)c3)o2)SC1=S`, the CC50 is 18.3 µM.

Consider `CS(=O)(=O)C1=NSC2=NC(=O)/C(=C\c3cccn3-c3cccc(Cl)c3)C(=N)N21`, for which the CC50 was 36.5 µM.

For `Cc1c2c(=O)n(-c3nc4ccccc4s3)nc-2cc(O)n1C1CC1`, the 50% cytotoxic concentration (CC50) is 6 µM.

With `CS(=O)(=O)C1=NSC2=NC(=O)/C(=C\c3cccn3-c3ccc(F)cc3)C(=N)N21`, the half-maximal cytotoxic concentration (CC50) was 36.3 µM.

`Cc1c2c(=O)n(-c3nc4ccccc4s3)nc-2cc(O)n1Cc1ccccc1Cl`: the cytotoxic concentration (CC50) is 23.5 µM.

As to `CS(=O)(=O)C1=NSC2=NC(=O)/C(=C\c3cccn3-c3ccc(Br)cc3)C(=N)N21`, the cytotoxic concentration (CC50) was 36.9 µM.

As for `COc1ccccc1Cn1c(O)cc2nn(-c3nc4ccccc4s3)c(=O)c-2c1C`, the CC50 was 36.6 µM.

With `COc1ccc(Cn2c(O)cc3nn(-c4nc5ccccc5s4)c(=O)c-3c2C)cc1`, the CC50 is 39.4 µM.

Regarding `O=C(O)CCCN1C(=O)/C(=C/c2ccc(-c3cccc(C(F)(F)F)c3)o2)SC1=S`, the CC50 was 92.8 µM.

Regarding `O=C(O)c1ccc([C@@H]2Nc3ccc(S(=O)(=O)Nc4cccc5ccccc45)cc3[C@@H]3C=CC[C@@H]32)cc1`, the half-maximal cytotoxic concentration (CC50) is 68.9 µM.

In the case of `CCc1ccc(-c2ccc(/C=C3\SC(=S)N(CCCC(=O)O)C3=O)o2)cc1`, the CC50 is > 100 µM (inactive).

With `CS(=O)(=O)C1=NSC2=NC(=O)/C(=C\c3cccn3-c3cccc(F)c3)C(=N)N21`, the CC50 was 48.5 µM.

Take `CCOc1ccc(-n2cccc2/C=C2/C(=N)N3C(=NC2=O)SN=C3S(C)(=O)=O)cc1`: the cytotoxic concentration (CC50) was 40.2 µM.

Turning to `O=C(O)CCCN1C(=O)/C(=C\c2ccc(-c3ccc(F)cc3)o2)SC1=S`, the half-maximal cytotoxic concentration (CC50) is 88.2 µM.

As to `Cc1c2c(=O)n(-c3nc4ccccc4s3)nc-2cc(O)n1Cc1ccncc1`, the half-maximal cytotoxic concentration (CC50) is 5.17 µM.

Turning to `O=C(O)CCCN1C(=O)/C(=C\c2ccc(-c3ccc(Br)cc3)o2)SC1=S`, the half-maximal cytotoxic concentration (CC50) was 7.36 µM.

With `COc1ccc(CCn2c(O)cc3nn(-c4nc5ccccc5s4)c(=O)c-3c2C)cc1`, the CC50 was 36.4 µM.

Consider `O=C(O)CCCN1C(=O)/C(=C\c2ccc(-c3ccc(Cl)cc3)o2)SC1=S`, for which the 50% cytotoxic concentration (CC50) is 37.5 µM.

For the compound `O=C(O)c1ccc(C2Nc3ccc(S(=O)(=O)Nc4cc(Cl)ccc4Cl)cc3C3C=CCC32)cc1` (centres undefined), the CC50 was 85.6 µM.

With `CCOC(=O)C1=C(C)N=c2sc(=Cc3ccc(OCC(=O)O)cc3)c(=O)n2C1c1ccc(F)cc1` (centres undefined), the CC50 was 63 µM.

Regarding `COc1ccc(-c2ccc(/C=C3\SC(=S)N(CCCC(=O)O)C3=O)o2)cc1`, the CC50 is 78.6 µM.

On to `CCOC(=O)C1=C(C)N=c2sc(=Cc3ccc(OCC(=O)O)cc3)c(=O)n2C1c1ccc(OC)cc1OC` (centres undefined), for which the CC50 was 55.8 µM.

Turning to `COc1cccc(C2C(C(=O)Nc3ccccc3)=C(C)N=c3sc(=Cc4ccc(OCC(=O)O)cc4)c(=O)n32)c1` (centres undefined), the CC50 is > 100 µM (inactive).

In the case of `O=C(O)CCCN1C(=O)/C(=C\c2ccc(-c3cccc(Cl)c3)o2)SC1=S`, the CC50 is 51.1 µM.

In the case of `Cc1c2c(=O)n(-c3nc4ccccc4s3)nc-2cc(O)n1CCC(C)C`, the CC50 is 36.5 µM.

Take `COc1cccc(-n2cccc2/C=C2/C(=N)N3C(=NC2=O)SN=C3S(C)(=O)=O)c1`: the CC50 is > 100 µM (inactive).

`O=C(O)c1ccc(C[n+]2c(-c3ccc([N+](=O)[O-])cc3)csc2Nc2ccccc2)cc1`: the CC50 is > 100 µM (inactive).

As to `O=C(O)c1ccc(C[n+]2c(-c3ccccc3)csc2Nc2ccccc2)cc1`, the CC50 was 75.2 µM.

With `Cc1ccc(-n2cccc2/C=C2/C(=N)N3C(=NC2=O)SN=C3S(C)(=O)=O)cc1C`, the CC50 was 32.7 µM.

Consider `CCc1ccc(-n2cccc2/C=C2/C(=N)N3C(=NC2=O)SN=C3S(C)(=O)=O)cc1`, for which the half-maximal cytotoxic concentration (CC50) was 30.7 µM.

`COc1ccc(-n2cccc2/C=C2/C(=N)N3C(=NC2=O)SN=C3S(C)(=O)=O)cc1Cl`: the CC50 was 96 µM.

`Nc1sc2ccccc2[n+]1Cc1ccc(C(=O)O)cc1`: the CC50 is > 100 µM (inactive).

On to `CS(=O)(=O)C1=NSC2=NC(=O)/C(=C\c3cccn3-c3cc(Cl)cc(Cl)c3)C(=N)N21`, for which the CC50 is 51.9 µM.

Regarding `Cc1c2c(=O)n(-c3nc4ccccc4s3)nc-2cc(O)n1CCc1ccc(O)cc1`, the CC50 was 27.2 µM.

As to `Cc1c2c(=O)n(-c3nc4ccccc4s3)nc-2cc(O)n1Cc1cccnc1`, the CC50 was 7.3 µM.

Consider `CS(=O)(=O)C1=NSC2=NC(=O)/C(=C\c3cccn3-c3cccc(C(F)(F)F)c3)C(=N)N21`, for which the CC50 was 53.9 µM.

Take `Cc1c2c(=O)n(-c3nc4ccccc4s3)nc-2cc(O)n1CCc1cccs1`: the CC50 is > 100 µM (inactive).

With `CCOC(=O)C1=C(C)N=c2s/c(=C\c3ccc(OCC(=O)O)cc3)c(=O)n2C1c1ccc(Cl)cc1` (centres undefined), the cytotoxic concentration (CC50) is 38.3 µM.

On to `CS(=O)(=O)C1=NSC2=NC(=O)/C(=C\c3cccn3-c3ccc(Cl)cc3)C(=N)N21`, for which the CC50 was 39.7 µM.

In the case of `O=C(O)CCC(C(=O)O)N1C(=O)/C(=C\c2ccco2)SC1=S` (centres undefined), the CC50 was > 100 µM (inactive).

As for `CCOC(=O)C1=C(C)N=c2sc(=Cc3ccc(OCC(=O)O)cc3)c(=O)n2C1c1ccccc1` (centres undefined), the CC50 was 62.2 µM.

As for `Cc1c2c(=O)n(-c3nc4ccccc4s3)nc-2cc(O)n1Cc1cccs1`, the CC50 was 42.5 µM.

Turning to `CS(=O)(=O)C1=NSC2=NC(=O)/C(=C\c3cccn3-c3ccc(Cl)c(Cl)c3)C(=N)N21`, the CC50 was 39.4 µM.

On to `CCOC(=O)C1=C(c2ccccc2)N=c2s/c(=C\c3ccc(OCC(=O)O)cc3)c(=O)n2C1c1cccc(OC)c1` (centres undefined), for which the 50% cytotoxic concentration (CC50) is 51.5 µM.

Turning to `Cc1ccc(-n2cccc2/C=C2/C(=N)N3C(=NC2=O)SN=C3S(C)(=O)=O)cc1`, the CC50 was 39.5 µM.

Regarding `COc1ccccc1NS(=O)(=O)c1ccc2c(c1)C1C=CCC1C(c1ccc(C(=O)O)cc1)N2` (centres undefined), the CC50 was 70.9 µM.

Turning to `Cc1c2c(=O)n(-c3nc4ccccc4s3)nc-2cc(O)n1Cc1ccc(F)cc1`, the CC50 is 38.5 µM.

For the compound `CCOC(=O)C1=C(C)N=c2s/c(=C\c3ccc(OCC(=O)O)cc3)c(=O)n2C1c1ccc(OC)c(OCC)c1` (centres undefined), the CC50 was 71.9 µM.

With `CC1=C(C(=O)OC(C)C)C(c2ccc(Cl)cc2)n2c(s/c(=C\c3ccc(OCC(=O)O)cc3)c2=O)=N1` (centres undefined), the CC50 is > 100 µM (inactive).
